{"source": "patent US20200001120A1", "about": "“APPARATUS, METHOD, AND USE FOR ULTRASOUND MEDIATED MICROBUBBLE DELIVERY OF PHARMACEUTICAL COMPOSITIONS” (priority 2017, published 2020)", "test_system": "E. coli", "experiment": "E. coli pneumonia in mice: gentamicin with or without USMB, cfu in lung homogenates", "assay_type": "in vivo, C57BL/6 mice", "method": "To establish whether USMB enhances antibiotic delivery to the injured lung, gentamicin (1.5 mg/kg) was administered to mice by intraperitoneal injection 6 hours after infection with E. coli to determine whether USMB conferred any additional benefit to treatment with antibiotics or microbubbles alone. This relatively low dose of gentamicin was chosen as it is relatively slow and achieves incomplete clearance of lung pathogens and thus allows any benefit of USMB to become apparent. In humans, high doses of gentamicin are known to cause nephro- and ototoxicity, making it contraindicated for human use at high doses.\nC57BL/6 mice were infected intratracheally with 1×10^7 colony forming units (cfu) of E. coli and received 1.5 mg/kg of gentamicin by intraperitoneal injection 6 hours later. Thirty minutes later, the mice were then injected intravenously with 1×10^9 microbubbles (Definity™) by tail vein. (Definity™ is an approved microbubble preparation that is used for diagnostic imaging in intensive care unit patients.) This was followed by thoracic ultrasound administration for five minutes. The ultrasound treatment conditions were the same as those used in Example 1. Eighteen hours later, mice were euthanized by cervical dislocation and lungs were homogenized for cfu. Lung homogenates were plated on agar to measure bacterial growth. Each experiment was repeated twice with 3 mice per group. Control mice received microbubbles and antibiotic without ultrasound (MB+ antibiotics) or antibiotics alone (PBS and antibiotics). Other control mice received no antibiotics. […] Data are mean plus SEM (SD if <3 mice) with each dot representing a separate animal. Note the >1 log-fold reduction in cfu in the mice receiving USMB with antibiotics (left-most group) compared to microbubbles/antibiotics alone. An ELISA performed on lung homogenates and plasma measures gentamicin levels.", "data": [{"substance": "gentamicin", "values": [{"measurement": "reduction in cfu in lung homogenates", "setting": "gentamicin 1.5 mg/kg i.p. plus USMB vs microbubbles/antibiotics alone, 18 hours later", "value": "> 1", "unit": "log-fold"}, {"measurement": "reduction in bacterial growth caused by USMB", "setting": "gentamicin 1.5 mg/kg i.p. plus USMB, both replicates", "value": 10, "unit": "fold"}, {"measurement": "bacterial colony forming units (cfu)", "setting": "gentamicin alone, 1.5 mg/kg i.p.", "value": "reduction"}, {"measurement": "benefit over antibiotics alone", "setting": "microbubbles and antibiotics without ultrasound", "value": "no benefit"}]}]}
